Entries after “also recorded” stand apart in the source; their conditions may differ.
Experiments:
[1] = in vivo circulation; cited from earlier work
EDTA plasma = conditions: human, RT (25 ± 1°C), up to 96 hours
P800 plasma = conditions: human, RT (25 ± 1°C), up to 96 hours
citrate-plasma = conditions: human, RT (25 ± 1°C)
heparin-plasma = conditions: human, RT (25 ± 1°C)
[2] = conventional serum sample; conditions: human, RT (25 ± 1°C), up to 96 hours
purified DPP-IV enzyme = test: 50 mM HEPES buffer (pH7.5); conditions: 37°C, up to 48 hours

CC[C@H](C)[C@H](NC(=O)[C@H](CO)NC(=O)[C@H](Cc1ccc(O)cc1)NC(=O)[C@H](CC(=O)O)NC(=O)[C@H](CO)NC(=O)[C@@H](NC(=O)[C@H](Cc1ccccc1)NC(=O)[C@@H](NC(=O)CNC(=O)[C@H](CCC(=O)O)NC(=O)[C@H](C)NC(=O)[C@@H](N)Cc1ccc(O)cc1)[C@@H](C)O)[C@@H](C)CC)C(=O)N[C@@H](C)C(=O)N[C@@H](CCSC)C(=O)N[C@@H](CC(=O)O)C(=O)N[C@@H](CCCCN)C(=O)N[C@H](C(=O)N[C@@H](Cc1c[nH]cn1)C(=O)N[C@@H](CCC(N)=O)C(=O)N[C@@H](CCC(N)=O)C(=O)N[C@@H](CC(=O)O)C(=O)N[C@@H](Cc1ccccc1)C(=O)N[C@H](C(=O)N[C@@H](CC(N)=O)C(=O)N[C@@H](Cc1c[nH]c2ccccc12)C(=O)N[C@@H](CC(C)C)C(=O)N[C@@H](CC(C)C)C(=O)N[C@@H](C)C(=O)N[C@@H](CCC(N)=O)C(=O)N[C@@H](CCCCN)C(=O)NCC(=O)N[C@@H](CCCCN)C(=O)N[C@@H](CCCCN)C(=O)N[C@@H](CC(N)=O)C(=O)N[C@@H](CC(=O)O)C(=O)N[C@@H](Cc1c[nH]c2ccccc12)C(=O)N[C@@H](CCCCN)C(=O)N[C@@H](Cc1c[nH]cn1)C(=O)N[C@@H](CC(N)=O)C(=O)N[C@H](C(=O)N[C@H](C(=O)N[C@@H](CCC(N)=O)C(=O)O)[C@@H](C)O)[C@@H](C)CC)C(C)C)[C@@H](C)CC [GIP(1–42), glucose-dependent insulinotropic polypeptide]
half-life in circulation [1]: ~5 min

HA/EGTFTSDVSSYLEGQAAKEFIAWLVKGR-NH2
cleaved bond (EDTA plasma): A8-E9, major, 30 minutes | cleaved bond (P800 plasma): A8-E9, minor, after 3-day incubation | cleaved bond (citrate-plasma): A8-E9, major, 30 minutes | cleaved bond (heparin-plasma): A8-E9, major | cleaved bond [2]: A8-E9, major, 30 minutes | not cleaved [2]: no G36A-1C

HA/EGTFTSDVSSYLEGQAAKEFIAWLVKGR-OH
cleaved bond (EDTA plasma): A8-E9, 30 minutes | cleaved bond [2]: A8-E9, 30 minutes; also recorded: G35-R36, 30 minutes

HA/EGTFTSDVSSYLEGQAAKEFIAWLVKGRG
cleaved bond (EDTA plasma): A8-E9, major, 1h | cleaved bond (P800 plasma): A8-E9, minor, after 3-day incubation | cleaved bond (citrate-plasma): A8-E9, major | cleaved bond (heparin-plasma): A8-E9, major

HS/QGTFTSDYSKYLDSRRAQDFVQWLMNTKRNRNNIA
cleaved bond (purified DPP-IV enzyme): S2-Q3, first_seen, 24 hours; also recorded: G4-T5, 48 h

HSQGTFTSDYSKYLDSRRAQDFVQWLMNTKRNKNNIA
not cleaved (P800 plasma): fragments not detectable during 3-day incubation; full-length OXM stabilized for more than three days

YA/EGTFISDYSIAMDKIHQQDFVNWLLAQKGKKNDWKHNITQ
cleaved bond (EDTA plasma): A2-E3, major, two hours | not cleaved (P800 plasma): without any GIP degradation fragments detectable during 4-day incubation at RT; t½ > 96 hours | cleaved bond [2]: A2-E3, major

glucagon-like peptide 1 [GLP-1]
half-life in circulation [1]: approximately 2 minutes

— PMC4519045 (PLoS ONE, 2015)
